Laboratory results reported in patent US9976122B2, “Methods and compositions for generating an immune response by inducing CD40 and pattern recognition receptor adapters” (BAYLOR COLLEGE OF MEDICINE, priority 2008, dated 2018).

What was measured:
human SOCS1 = assay: Real time Q-PCR assay for human SOCS1 in DCs; type: cell-based; conditions: stimulus by itself
Text: Total RNA was purified and reverse transcribed with random hexamers using SuperScript II RTase (Invitrogen, Carlsbad, Calif.). mRNA levels were quantified in DCs by subjecting cDNA to TaqMan PCR analysis using the GeneAmp 5700 Sequence Detection System (Applied Biosystems, Foster City, Calif.). Pre-developed sequence detection reagents (Applied Biosystems) specific for human SOCS1 and 18S rRNA, including forward and reverse primers as well as a fluorogenic TaqMan FAM-labeled hybridization probe, were supplied as mixtures and were used at 1 microliter/20 microliter PCR. Samples were run in duplicates. The level of SOCS1 expression in each sample was normalized to the level of 18S rRNA from the same sample using the comparative 2-delta delta CT method (Livak K J, Schmittgen T D. Analysis of relative gene expression data using real-time quantitative PCR and the 2(-Delta Delta C(T)) Method. Methods. 2001; 25:402-408).
Finally, the induction of the suppressor of cytokine signaling (SOCS1) was evaluated.

[1] = tested on: Naïve CD4+CD45RA+ T cells; type: cell-based, human; conditions: restimulated with TTp30 at day 7
human DCs = assay: Cytokine ELISA (IL-12p70, IL-6) of culture supernatants of human monocyte-derived DCs; type: cell-based; conditions: LPS and CD40L-stimulated DCs

Lipopolysaccharide [LPS]
SOCS1 induction in DCs (human SOCS1): up-regulated

monophosphoryl lipid A [MPL]
IFN-gamma production in CD4+ T cells [1]: not induced

B1: CD40L: CD40 ligand, a TNF family member that binds to the CD40 receptor (protein)
chain: MIETYNQTSPRSAATGLPISMKIFMYLLTVFLITQMIGSALFAVYLHRRLDKIEDERNLHEDFVFMKTIQRCNTGERSLSLLNCEEIKSQFEGFVKDIMLNKEETKKENSFEMQKGDQNPQIAAHVISEASSKTTSVLQWAEKGYYTMSNNLVTLENGKQLTVKRQGLYYIYAQVTFCSNREASSQAPFIASLCLKSPGRFERILLRAANTHSSAKPCGQQSIHLGGVFELQPGASVFVNVTDPSQVSHGTGFTSFGLLKL
IL-12p70 expression after removal of LPS stimulation (human DCs): ceased when LPS stimulation was removed
